The source of these data is ChEMBL document CHEMBL1201862, “PubChem BioAssay data set” (2004).

One experiment concerns the target ORF 73 (Human herpesvirus 8, UniProt O40947). Kind of experiment: inhibitors of C-LANA binding to LBS DNA, dose response, biochemical, fluorescence polarization, cherry-picked samples (AID 504725).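 Further: fluorescence polarization of a labeled DNA duplex reporting LANA DNA binding; potency is for inhibitors that block LANA binding to the DNA.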 Also noted: species or system Human gammaherpesvirus 8.
For another experiment, the target named is T1, Aminopeptidase N (Plasmodium falciparum FcB1/Columbia, UniProt O96935).
T1 sequence (O96935 whole entry): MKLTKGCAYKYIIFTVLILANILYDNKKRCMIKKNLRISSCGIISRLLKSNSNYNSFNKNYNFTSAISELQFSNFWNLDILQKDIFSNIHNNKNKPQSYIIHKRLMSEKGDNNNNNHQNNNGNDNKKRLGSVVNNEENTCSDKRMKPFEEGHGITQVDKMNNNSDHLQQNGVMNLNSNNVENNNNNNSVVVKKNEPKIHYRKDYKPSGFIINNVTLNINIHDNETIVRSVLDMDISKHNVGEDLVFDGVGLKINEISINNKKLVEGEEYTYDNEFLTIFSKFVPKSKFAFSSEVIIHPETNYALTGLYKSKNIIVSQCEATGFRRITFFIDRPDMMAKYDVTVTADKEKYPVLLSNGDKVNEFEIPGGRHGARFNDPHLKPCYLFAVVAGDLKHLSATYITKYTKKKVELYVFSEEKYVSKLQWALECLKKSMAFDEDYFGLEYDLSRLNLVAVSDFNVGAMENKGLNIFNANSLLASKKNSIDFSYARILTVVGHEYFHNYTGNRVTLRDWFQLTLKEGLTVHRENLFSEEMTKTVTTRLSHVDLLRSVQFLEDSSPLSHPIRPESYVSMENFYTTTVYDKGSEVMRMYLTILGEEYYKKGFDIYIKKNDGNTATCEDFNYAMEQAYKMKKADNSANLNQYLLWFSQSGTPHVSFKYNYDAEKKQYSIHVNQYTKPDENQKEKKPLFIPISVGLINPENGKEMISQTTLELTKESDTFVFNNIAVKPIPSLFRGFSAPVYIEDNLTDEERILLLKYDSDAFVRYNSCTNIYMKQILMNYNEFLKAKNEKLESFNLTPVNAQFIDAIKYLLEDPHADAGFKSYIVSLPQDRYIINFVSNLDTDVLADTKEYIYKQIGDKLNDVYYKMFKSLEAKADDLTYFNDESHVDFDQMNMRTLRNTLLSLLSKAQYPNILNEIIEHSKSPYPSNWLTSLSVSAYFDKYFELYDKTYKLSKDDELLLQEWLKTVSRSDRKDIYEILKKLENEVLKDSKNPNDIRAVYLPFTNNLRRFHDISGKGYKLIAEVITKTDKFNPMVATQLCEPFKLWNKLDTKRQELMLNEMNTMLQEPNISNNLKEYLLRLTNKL
Description: P. falciparum M1AAP inhibitors, biochemical, fluorogenic H-Leu-NHMec substrate, 1536-well (AID 1445). Also on record: species or system Plasmodium falciparum 3D7, 3D7.

Experiment [1] deals with T2, Zinc finger protein mex-5 (Caenorhabditis elegans, UniProt Q9XUB2).
T2 sequence (Q9XUB2 whole entry): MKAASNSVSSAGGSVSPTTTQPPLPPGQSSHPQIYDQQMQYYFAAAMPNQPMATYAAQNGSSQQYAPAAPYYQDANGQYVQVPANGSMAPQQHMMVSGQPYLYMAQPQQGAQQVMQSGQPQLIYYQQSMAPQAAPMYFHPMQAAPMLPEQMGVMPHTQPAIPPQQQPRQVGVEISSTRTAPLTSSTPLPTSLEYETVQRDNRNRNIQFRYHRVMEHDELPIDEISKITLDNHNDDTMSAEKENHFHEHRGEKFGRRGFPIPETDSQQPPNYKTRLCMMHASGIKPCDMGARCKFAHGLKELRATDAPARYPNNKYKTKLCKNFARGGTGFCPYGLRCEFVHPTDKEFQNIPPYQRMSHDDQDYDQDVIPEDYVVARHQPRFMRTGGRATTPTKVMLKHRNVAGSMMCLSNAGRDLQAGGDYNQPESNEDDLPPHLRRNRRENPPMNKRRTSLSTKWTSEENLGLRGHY
Description: MEX-5/TCR-2 RNA interaction inhibitors, dose response, biochemical, C. elegans, fluorescence polarization (AID 1960). In general terms: Fluorescence polarisation rises when a labelled molecule tumbles more slowly, as on binding a larger partner.

The target in experiment [2] is T3, RNA-binding protein pos-1 (Caenorhabditis elegans, UniProt G5EF15).
T3 sequence (G5EF15 whole entry): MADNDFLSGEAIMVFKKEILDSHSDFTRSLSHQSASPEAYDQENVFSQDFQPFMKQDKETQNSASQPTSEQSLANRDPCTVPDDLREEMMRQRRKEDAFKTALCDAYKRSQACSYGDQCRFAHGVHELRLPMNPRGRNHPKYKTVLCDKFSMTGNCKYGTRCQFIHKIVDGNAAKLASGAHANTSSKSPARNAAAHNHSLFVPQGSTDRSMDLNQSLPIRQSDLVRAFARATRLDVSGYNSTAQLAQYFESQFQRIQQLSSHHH
Description: inhibitors of POS-1/mex-3 RNA binding, dose response, biochemical, fluorescence polarization (AID 1964).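 Further: purified POS-1 fused to maltose binding protein made in E. coli; potency of compounds blocking POS-1 binding to fluorescent RNA.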

Experiment [3] has as its target Voltage-dependent T-type calcium channel subunit alpha-1H (Homo sapiens, UniProt O95180). Kind of experiment: Cav3.2 T-type channel inhibitors, cell-based, synthetic library set 1, calcium flux (AID 493022). Type of experiment: functional. (In general: Calcium flux is commonly read through the fluorescence of an indicator in the cells.)
The target of experiment [4] is Delta-type opioid receptor (Homo sapiens, UniProt P41143). Kind of experiment: SAR Analysis of Antagonists of the DOR Receptor using an Image-Based Assay - Set 3. [Related pubchem assays (depositor defined):AID1777, AID1785]. In kind it is functional.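 Further: U2OS cells expressing DOR1 and beta-arrestin GFP stimulated with 100 nM SNC80; imaging of GFP-tagged beta-arrestin moving into spots after receptor activation.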
Delta-type opioid receptor, sequence (P41143 whole entry): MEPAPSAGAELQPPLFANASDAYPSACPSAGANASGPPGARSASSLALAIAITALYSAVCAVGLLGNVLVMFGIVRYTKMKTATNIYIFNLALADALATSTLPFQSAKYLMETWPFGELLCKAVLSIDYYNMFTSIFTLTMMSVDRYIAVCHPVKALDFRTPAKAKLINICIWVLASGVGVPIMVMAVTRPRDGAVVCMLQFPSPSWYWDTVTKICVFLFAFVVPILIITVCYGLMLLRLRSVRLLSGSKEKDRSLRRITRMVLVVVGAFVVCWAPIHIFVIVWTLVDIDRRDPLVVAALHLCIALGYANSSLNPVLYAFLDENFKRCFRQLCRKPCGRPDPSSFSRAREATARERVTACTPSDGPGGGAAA
Experiment [5] has as its target T4, Kappa-type opioid receptor (Homo sapiens, UniProt P41145). Kind of experiment: SAR analysis of Antagonists of the Kappa Opioid Receptor (KOR) using an Image-Based Assay - Set 4. [Related pubchem assays (depositor defined):AID1777, AID1785]. Type of experiment: functional.
A further experiment deals with Mu-type opioid receptor (Homo sapiens, UniProt P35372). Description: SAR Analysis of Antagonists of the MOR Receptor using an Image-Based Assay - Set 3. [Related pubchem assays (depositor defined):AID1777, AID1785, AID1786, AID1966, AID2133, AID2136, AID2284, AID2285, AID2420]. In kind it is functional.
Mu-type opioid receptor, sequence (P35372 whole entry): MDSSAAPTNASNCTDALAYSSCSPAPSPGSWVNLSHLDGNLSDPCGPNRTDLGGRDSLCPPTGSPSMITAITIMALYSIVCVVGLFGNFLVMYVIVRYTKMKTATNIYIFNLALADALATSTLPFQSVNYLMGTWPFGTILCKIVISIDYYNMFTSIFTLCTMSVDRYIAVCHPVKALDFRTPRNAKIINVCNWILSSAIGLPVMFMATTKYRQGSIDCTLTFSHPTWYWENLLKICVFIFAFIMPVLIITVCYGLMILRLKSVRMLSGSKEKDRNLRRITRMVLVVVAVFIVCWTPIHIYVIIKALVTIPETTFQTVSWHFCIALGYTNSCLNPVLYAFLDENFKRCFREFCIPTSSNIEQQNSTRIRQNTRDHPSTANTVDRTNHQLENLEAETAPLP
The target of experiment [6] is T4, Kappa-type opioid receptor. Description: SAR analysis of small molecule antagonists of the kappa opioid receptor via a luminescent beta-arrestin assay - Set 4. [Related pubchem assays (depositor defined):AID1777, AID1778, AID1785, AID1786, AID1966, AID2133, AID2136, AID2285]. In kind it is functional.
The target in another experiment is T5, Hexokinase HKDC1 (Homo sapiens, UniProt Q2TB90).
T5 sequence (Q2TB90 whole entry): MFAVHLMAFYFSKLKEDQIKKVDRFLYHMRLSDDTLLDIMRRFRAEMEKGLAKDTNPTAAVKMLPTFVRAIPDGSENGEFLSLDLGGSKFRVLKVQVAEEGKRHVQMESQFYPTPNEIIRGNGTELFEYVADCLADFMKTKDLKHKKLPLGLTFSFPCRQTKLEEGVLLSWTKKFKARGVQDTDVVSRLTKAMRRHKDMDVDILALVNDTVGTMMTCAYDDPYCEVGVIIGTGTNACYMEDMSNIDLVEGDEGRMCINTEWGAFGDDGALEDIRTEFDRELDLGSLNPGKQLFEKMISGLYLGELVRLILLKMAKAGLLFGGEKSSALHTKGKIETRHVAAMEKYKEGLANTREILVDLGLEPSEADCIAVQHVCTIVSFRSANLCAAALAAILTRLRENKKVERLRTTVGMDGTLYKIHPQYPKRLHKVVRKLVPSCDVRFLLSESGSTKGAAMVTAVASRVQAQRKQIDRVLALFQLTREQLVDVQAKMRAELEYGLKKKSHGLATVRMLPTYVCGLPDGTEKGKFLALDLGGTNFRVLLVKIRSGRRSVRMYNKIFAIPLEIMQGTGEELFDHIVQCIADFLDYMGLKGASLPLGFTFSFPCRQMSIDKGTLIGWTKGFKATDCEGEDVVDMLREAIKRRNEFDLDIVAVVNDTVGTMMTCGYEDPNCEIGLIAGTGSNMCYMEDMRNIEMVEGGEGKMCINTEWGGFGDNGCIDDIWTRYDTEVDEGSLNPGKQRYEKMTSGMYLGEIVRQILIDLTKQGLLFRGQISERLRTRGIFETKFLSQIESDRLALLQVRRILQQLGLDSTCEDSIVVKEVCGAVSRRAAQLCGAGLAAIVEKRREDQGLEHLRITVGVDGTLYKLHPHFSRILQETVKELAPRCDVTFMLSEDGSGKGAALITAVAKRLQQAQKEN
Kind of experiment: HKDC1 hexokinase activators, dose response, biochemical, W721R variant (AID 504730). In kind it is functional.

The target of a further experiment is Nonstructural protein 1 (Influenza A virus, UniProt Q194T2). Type of experiment: functional, Influenza A virus (A/California/07/2009(H1N1)).
Nonstructural protein 1, sequence (Q194T2 whole entry): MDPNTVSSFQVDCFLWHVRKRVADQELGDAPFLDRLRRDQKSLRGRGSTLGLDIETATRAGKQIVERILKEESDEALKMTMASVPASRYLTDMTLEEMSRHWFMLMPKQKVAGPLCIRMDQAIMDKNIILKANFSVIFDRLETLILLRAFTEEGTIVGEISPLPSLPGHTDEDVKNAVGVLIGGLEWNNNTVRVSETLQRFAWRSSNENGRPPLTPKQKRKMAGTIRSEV
The target in another experiment is Hexokinase-1 (Homo sapiens, UniProt P19367). Kind of experiment: hexokinase 1 activators, dose response, selectivity assay for HKDC1 activator project, biochemical (AID 504762). In kind it is functional.
Hexokinase-1, sequence (P19367 whole entry): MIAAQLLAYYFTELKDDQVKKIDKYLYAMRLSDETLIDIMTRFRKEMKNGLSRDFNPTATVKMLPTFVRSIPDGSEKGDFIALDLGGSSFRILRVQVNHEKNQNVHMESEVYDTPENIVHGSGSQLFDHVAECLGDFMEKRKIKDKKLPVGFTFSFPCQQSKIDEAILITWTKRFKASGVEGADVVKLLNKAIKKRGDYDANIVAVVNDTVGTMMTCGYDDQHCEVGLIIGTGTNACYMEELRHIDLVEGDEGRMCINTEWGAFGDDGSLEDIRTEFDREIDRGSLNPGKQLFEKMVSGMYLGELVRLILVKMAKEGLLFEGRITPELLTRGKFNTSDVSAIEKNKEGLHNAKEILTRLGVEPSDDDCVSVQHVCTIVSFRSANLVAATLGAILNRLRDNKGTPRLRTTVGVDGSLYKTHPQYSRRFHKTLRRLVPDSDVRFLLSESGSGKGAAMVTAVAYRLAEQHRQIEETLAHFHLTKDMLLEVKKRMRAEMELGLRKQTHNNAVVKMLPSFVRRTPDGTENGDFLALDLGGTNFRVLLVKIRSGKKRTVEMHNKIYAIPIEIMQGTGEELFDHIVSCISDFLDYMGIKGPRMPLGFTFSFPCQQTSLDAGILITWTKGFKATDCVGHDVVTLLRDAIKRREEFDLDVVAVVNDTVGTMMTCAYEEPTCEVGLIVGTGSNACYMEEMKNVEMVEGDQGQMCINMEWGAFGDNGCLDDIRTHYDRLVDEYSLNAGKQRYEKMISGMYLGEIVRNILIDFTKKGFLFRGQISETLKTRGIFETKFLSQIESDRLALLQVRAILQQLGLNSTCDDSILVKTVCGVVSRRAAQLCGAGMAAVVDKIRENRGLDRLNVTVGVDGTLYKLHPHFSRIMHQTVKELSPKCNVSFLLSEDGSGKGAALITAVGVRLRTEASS
Another experiment deals with HEK293. Description: inhibitors of LMP1-driven NF-kB reporter, dose response, cell-based, HEK293, luciferase, cherry-pick (AID 588343). Type of experiment: functional. To be noted: Homo sapiens.
In experiment [7] the target is T6, G-protein coupled receptor 35 (Homo sapiens, UniProt Q9HC97). Kind of experiment: SAR Analysis for the identification of Selective Antagonists of ERK1/2 Activity in GPR35-Overexpressing U2OS Cells - Set 2. [Related pubchem assays (depositor defined):AID2058, AID2079]. In kind it is functional, cell-based.
T6 sequence (Q9HC97 whole entry): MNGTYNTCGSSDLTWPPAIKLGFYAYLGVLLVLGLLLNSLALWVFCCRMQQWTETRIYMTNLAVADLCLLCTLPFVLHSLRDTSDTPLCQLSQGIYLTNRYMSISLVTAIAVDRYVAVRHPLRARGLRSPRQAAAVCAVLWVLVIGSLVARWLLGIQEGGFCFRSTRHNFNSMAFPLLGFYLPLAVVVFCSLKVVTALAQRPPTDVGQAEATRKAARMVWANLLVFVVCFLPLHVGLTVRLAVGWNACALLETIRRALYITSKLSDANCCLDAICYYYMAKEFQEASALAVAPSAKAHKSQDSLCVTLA
The target in experiment [8] is T6, G-protein coupled receptor 35. Kind of experiment: GPR35 antagonists blocking zaprinast-driven arrestin recruitment, primary screen, imaging, U2OS, beta-arrestin-GFP, zaprinast agonist (AID 2058).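 Further: antagonist potency meaning inhibition of agonist-induced arrestin redistribution.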 Type of experiment: functional.
The target is the same in experiment [9]. Description: SAR analysis of Antagonists of the GPR35 Receptor using an Image-Based Assay - Set 5. [Related pubchem assays (depositor defined):AID2058, AID2079]. Type of experiment: functional.
Experiment [10] concerns the target G-protein coupled receptor 55 (Homo sapiens, UniProt Q9Y2T6). Description: SAR Analysis of Selective Antagonists of GPR55 using an Image-Based Assay - Set 3. [Related pubchem assays (depositor defined):AID2058, AID2079]. In kind it is functional.
In experiment [11] the target is T4, Kappa-type opioid receptor. Kind of experiment: SAR analysis of small molecule agonists of the kappa opioid receptor via a luminescent beta-arrestin assay - Set 2. [Related pubchem assays (depositor defined):AID1777, AID1785, AID1786, AID1966, AID2133, AID2136, AID2284, AID449737]. Type of experiment: functional.

SMILES strings stand for the structures. Activity calls are given as the source filed them.

T4 sequence (P41145 whole entry): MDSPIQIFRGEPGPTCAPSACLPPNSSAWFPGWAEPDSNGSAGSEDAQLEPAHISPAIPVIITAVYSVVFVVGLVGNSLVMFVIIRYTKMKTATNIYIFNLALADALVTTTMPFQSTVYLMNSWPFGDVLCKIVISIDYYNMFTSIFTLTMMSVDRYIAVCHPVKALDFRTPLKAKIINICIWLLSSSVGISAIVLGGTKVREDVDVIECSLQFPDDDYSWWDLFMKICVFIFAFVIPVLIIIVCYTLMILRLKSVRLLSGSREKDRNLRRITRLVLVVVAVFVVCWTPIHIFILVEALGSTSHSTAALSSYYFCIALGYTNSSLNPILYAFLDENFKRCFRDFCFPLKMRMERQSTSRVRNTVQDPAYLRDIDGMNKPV
ORF 73, sequence (O40947 whole entry): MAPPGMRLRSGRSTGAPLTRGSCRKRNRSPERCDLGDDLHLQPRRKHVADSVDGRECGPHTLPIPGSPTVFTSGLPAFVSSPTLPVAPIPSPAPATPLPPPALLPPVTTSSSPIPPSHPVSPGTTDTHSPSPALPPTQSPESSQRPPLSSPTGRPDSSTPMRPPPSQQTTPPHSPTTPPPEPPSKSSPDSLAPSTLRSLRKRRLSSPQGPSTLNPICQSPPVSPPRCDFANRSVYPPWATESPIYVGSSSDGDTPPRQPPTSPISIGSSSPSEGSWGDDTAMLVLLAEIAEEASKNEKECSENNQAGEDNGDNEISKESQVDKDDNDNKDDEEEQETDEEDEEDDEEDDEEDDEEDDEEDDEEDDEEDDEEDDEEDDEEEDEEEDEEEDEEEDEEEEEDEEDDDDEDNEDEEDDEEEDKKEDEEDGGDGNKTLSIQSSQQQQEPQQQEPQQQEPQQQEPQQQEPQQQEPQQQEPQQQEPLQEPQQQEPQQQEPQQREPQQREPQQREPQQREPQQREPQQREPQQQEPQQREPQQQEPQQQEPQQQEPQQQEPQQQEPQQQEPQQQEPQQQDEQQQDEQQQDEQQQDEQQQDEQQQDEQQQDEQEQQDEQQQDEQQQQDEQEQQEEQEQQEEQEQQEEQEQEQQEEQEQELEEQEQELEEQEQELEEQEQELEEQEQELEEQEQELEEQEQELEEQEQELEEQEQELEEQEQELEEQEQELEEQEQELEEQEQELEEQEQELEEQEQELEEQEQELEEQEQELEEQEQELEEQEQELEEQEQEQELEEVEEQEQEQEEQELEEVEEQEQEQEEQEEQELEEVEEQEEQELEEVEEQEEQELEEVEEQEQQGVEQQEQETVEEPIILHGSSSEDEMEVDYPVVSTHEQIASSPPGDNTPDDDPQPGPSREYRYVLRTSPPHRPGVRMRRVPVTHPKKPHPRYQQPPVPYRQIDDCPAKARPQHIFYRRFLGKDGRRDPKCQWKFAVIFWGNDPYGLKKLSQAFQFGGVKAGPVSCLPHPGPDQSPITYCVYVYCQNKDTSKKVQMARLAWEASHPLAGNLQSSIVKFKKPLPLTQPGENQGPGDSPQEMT
G-protein coupled receptor 55, sequence (Q9Y2T6 whole entry): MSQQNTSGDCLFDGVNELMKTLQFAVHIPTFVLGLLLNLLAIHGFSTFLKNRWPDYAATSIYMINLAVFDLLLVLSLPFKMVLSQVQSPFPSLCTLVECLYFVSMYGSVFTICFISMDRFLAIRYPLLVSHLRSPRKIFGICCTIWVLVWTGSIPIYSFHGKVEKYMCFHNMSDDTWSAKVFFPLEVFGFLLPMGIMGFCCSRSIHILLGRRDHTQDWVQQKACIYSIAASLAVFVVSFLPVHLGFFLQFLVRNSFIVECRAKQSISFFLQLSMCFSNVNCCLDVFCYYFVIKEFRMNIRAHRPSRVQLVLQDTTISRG

For orientation: AC50 means the concentration giving half of the maximal activity seen. The IC50 is the concentration at which inhibition is half-maximal. One may read the EC50 as the concentration giving half of the maximal effect. For the compound `CS(=O)(=O)Nc1nc2n(n1)C(c1ccccc1)C=C(c1ccc(Br)cc1)N2` (stereo not drawn), the half-maximal activity concentration (AC50) on ORF 73 was 8.07 µM (active). For the same compound, the IC50 at Aminopeptidase N was 45.3 µM (active). Moreover, the concentration giving a half-maximal response (EC50) in experiment [1] is 6.39 µM (active); in [2], > 300 µM (not active).
With `CC(C)(Oc1ccccc1)C(=O)Nc1nnc(-c2ccc3ccccc3c2)o1`, the EC50 in experiment [3] is 1.1 µM (active).
For `Cc1ccc(S(=O)(=O)NCc2ccc(C(=O)NCCN3CCC(c4ccccc4)CC3)cc2)cc1`, the IC50 in experiment [4] was > 32 µM (inactive); in [5], 10.6 µM (inactive); at Mu-type opioid receptor, 3.88 µM (active); in experiment [6], > 20 µM (inactive).
On to `CC(=NNC(=S)N1CCCCC1)c1cccc(C)n1`, for which the figures for the EC50 on Hexokinase HKDC1 and on Hexokinase-1 were 14.5 µM (active) and > 80 µM (inactive), respectively. For the same compound, the IC50 on Nonstructural protein 1 was 3.84 µM (active). For the same compound, the concentration at half-maximal activity (AC50) in the experiment with HEK293 is 2.74 µM (active).
On to `COC(=O)c1cnn(-c2ccc(F)cc2F)c1/C=N/NC(=S)NC(C)(C)C`, for which the IC50 in experiment [7] was 1.39 µM (active); in experiment [8], < 0.5 µM (active); in [9] it was 0.16 µM (active); in experiment [10], 9.08 µM (active).
Consider `O=C(CN(Cc1cccs1)C(=O)c1ccccn1)NC1CCCCC1`, for which, in experiment [11], the EC50 was > 20 µM (inactive).
